Data from patent US20230151065A1, “MULTI-DISULFIDE-BOND LONG-CHAIN PEPTIDE WITH NEURO[…], PHARMACEUTICAL COMPOSITION AND APPLICATION” (priority 2018, published 2023).
Where no end group is shown, it is not given here.

Assays:
[1] = system: primary cultured SD fetal rat cortical neurons after OGD damage; experiment: OGD damage of cortical neurons, CCK-8 activity; type: cell-based; conditions: OGD 2 h, 24 h reoxygenation; ABPPk2 8, 40, 200 ng/ml; effect more obvious as dose increased
Method: (§1) The suspension was filtered with a 400-mesh screen, centrifuged at 1000 rpm for 5 min, and blown to form the single cell suspension. DMEM high glucose complete medium (containing 10% fetal bovine serum) was inoculated in a culture dish or culture plate pre-coated with polylysine (PLL) to culture in 5% CO2 incubator with saturated humidity at 37° C. After the cells were cultured for 4 h to adhere to the wall, the cells were cultured with neuron culture medium (neurobasal+2% B27) for 3 d to observe the growth of neurons. The culture medium containing cytarabine (the final concentration of cytarabine was 2.5 μg/ml) was substituted with half quantity to culture for 3d to inhibit the growth of glial cells and miscellaneous cells to obtain purely cultured primary cortical nerve cells. The purity of the cortical neurons was identified by immunocytochemical staining as more than 90%.
After the cortical neurons were cultured to the 7th day, the original culture medium was sucked out, and the cells were rinsed twice with sugar-free DMEM basal medium, for 5 min each time. […]
Analysis of cortical neuron activity after OGD damage and drug treatment: cortical neurons were inoculated into 96-well plates at 1×10^6 cells/ml; and 100 μl cell suspension was added to each well. […] The absorbance (OD) value of the sample in each well was measured on the microplate reader at 450 nm wavelength. […]

[2] = system: primary fetal rat hippocampal neurons; experiment: Growth of hippocampal neurons, live cell station; type: cell-based; conditions: ABPPk2 100 ng/ml, observed for 48 h
Method: (§2) (1) Primary culture of fetal rat hippocampal neurons: after a rat pregnant for 17 days was anesthetized, a fetal rat was taken out under sterile conditions; the brain of the fetal rat was taken out on ice; the hippocampus was carefully taken out under a dissecting microscope; and the blood vessel membranes were removed. 0.125% trypsin/EDTA was digested at 37° C. for 10 min, and the digestion was stopped by adding the DMEM complete medium containing 10% FBS. Cell debris were removed through centrifugal at 1000 rpm for 5 min; the DMEM complete medium was added to resuspend the cells; the cells were gently blown until a single cell suspension was formed; and the cells were inoculated at an appropriate density on a culture plate (dish) pre-coated with polylysine (PLL) and cultured at 37° C., 5% CO2 incubator. After 4 h, the cells were adhered to the wall; the DMEM complete medium was discarded and replaced with neurobasal medium containing different concentrations of ABPPk2 (the concentrations of ABPPk2 were 4 ng/ml, 20 ng/ml and 100 ng/ml); the neurobasal medium containing 10 ng/ml BDNF was used as the positive control group, and neurobasal was used as the negative control group.
(3) Neuron growth was observed by a live cell station: the hippocampal neuron single cell suspension obtained in (1) was inoculated on a culture plate pre-coated with PLL at a cell density of 5×10^5. […]

[3] = system: primary cultured SD fetal rat cortical neurons after OGD damage; experiment: OGD damage of cortical neurons, ROS content (reactive oxygen detection kit); type: cell-based; conditions: OGD 2 h, 24 h reoxygenation; ABPPk2 8, 40, 200 ng/ml; obvious dose-effect relationship
Method: as §1, with “90%. […]” for “90%.”
(6) Effect of ABPPk2 on ROS content of cortical neurons after OGD damage: cortical neurons were inoculated in a 6-well plate at 1×10^6 cells/ml; 2 ml of cell suspension was added to each well; and the cortical neurons were cultured to the 7th day. […] The effect of ABPPk2 on the ROS content of the cortical neurons after OGD damage was detected by a reactive oxygen detection kit.

[4] = system: primary cultured hippocampal neurons; experiment: Synapse formation in hippocampal neurons (SYN/PSD95 staining, PSD95 Western blot); type: cell-based, rat; conditions: treatment with ABPPk2 for 8 d
Method: as §2, with “After 4 h, the cells were adhered to the wall; the DMEM complete medium was discarded and replaced with neurobasal medium containing different concentrations of ABPPk2 (the concentrations of ABPPk2 were 4 ng/ml, 20 ng/ml and 100 ng/ml); the neurobasal medium containing 10 ng/ml BDNF was used as the positive control group, and neurobasal was used as the negative control group.” left out
(7) Promotion effect of ABPPk2 on synapse formation in primary cultured hippocampal neurons. […] The field of view was randomly selected and photographed under the laser confocal microscope, and the number of synaptic cristulas on every 100 μm neurites was counted. The effect of ABPPk2 on the expression of PSD95 was analyzed by Western blot. The steps were as follows: the total protein was extracted and the total protein concentration was determined by Bradford method. […]

Cys-Leu-Glu-Ser-Gly-Thr-Ser-Cys-Ile-Pro-Gly-Ala-Gln-His-Asn-Cys-Cys-Ser-Gly-Val-Cys-Val-Pro-Ile-Val-Thr-Ile-Phe-Tyr-Gly-Val-Cys-Tyr (CLESGTSCIPGAQHNCCSGVCVPIVTIFYGVCY; disulfide (positions not given here); not fully specified (bridges); also: three disulfide bonds, pairing not given here) [ABPPk2, 33 amino acid polypeptide isolated from the extract of Achyranthes bidentata Blume, three pairs of disulfide bonds]
cortical neuron activity (CCK-8) [1]: can effectively antagonize the decrease of cortical neuron activity caused by OGD damage
growth of hippocampal neurons (live cell station) [2]: can promote the growth of the hippocampal neurons and the extension of neurites
ROS content [3]: can reduce the ROS content
number of the formed synapses [4]: the number of the formed synapses can be significantly increased
expression of PSD95 protein ([4]; Western blot): up-regulated
